Test results published in patent US20090069373A1, “Quinoline Acids” (Wyeth, priority 2007, published 2009).

Key:
human LXRβ = target: T1, human LXRβ (Homo sapiens, UniProt P55055); assay: Ligand-binding test procedure for human LXRβ (3H T0901317 competition, flash plates); details: for Binding ratio a/b: IC50 (μM) LXRα binding/IC50 (μM) LXRβ binding; for IC50: biotinylated hLXRβ, tracer 3H T0901317
T1 construct: biotin (biotinylated; biotinylation tag not described); made in house; host or cells: E. coli
T1 sequence (P55055 1-460): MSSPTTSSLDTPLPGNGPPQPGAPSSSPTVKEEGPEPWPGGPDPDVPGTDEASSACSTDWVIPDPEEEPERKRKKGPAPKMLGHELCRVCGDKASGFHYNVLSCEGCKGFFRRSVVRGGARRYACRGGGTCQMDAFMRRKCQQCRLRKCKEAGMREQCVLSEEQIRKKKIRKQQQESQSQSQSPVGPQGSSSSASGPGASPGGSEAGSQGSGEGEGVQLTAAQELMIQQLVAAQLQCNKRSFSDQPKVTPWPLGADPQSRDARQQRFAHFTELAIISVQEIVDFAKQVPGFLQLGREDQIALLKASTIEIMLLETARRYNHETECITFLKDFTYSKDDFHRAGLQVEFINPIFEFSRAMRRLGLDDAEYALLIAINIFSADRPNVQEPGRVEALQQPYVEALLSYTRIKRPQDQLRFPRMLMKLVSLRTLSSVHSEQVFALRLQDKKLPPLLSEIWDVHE

human LXRα = target: T2, human LXRα (Homo sapiens, UniProt Q13133); assay: Ligand-binding test procedure for human LXRα (3H T0901317 competition, flash plates); details: biotinylated hLXRα, tracer 3H T0901317
T2 construct: biotin (biotinylated; biotinylation tag not described); made in house; host or cells: E. coli
T2 sequence (Q13133 1-447): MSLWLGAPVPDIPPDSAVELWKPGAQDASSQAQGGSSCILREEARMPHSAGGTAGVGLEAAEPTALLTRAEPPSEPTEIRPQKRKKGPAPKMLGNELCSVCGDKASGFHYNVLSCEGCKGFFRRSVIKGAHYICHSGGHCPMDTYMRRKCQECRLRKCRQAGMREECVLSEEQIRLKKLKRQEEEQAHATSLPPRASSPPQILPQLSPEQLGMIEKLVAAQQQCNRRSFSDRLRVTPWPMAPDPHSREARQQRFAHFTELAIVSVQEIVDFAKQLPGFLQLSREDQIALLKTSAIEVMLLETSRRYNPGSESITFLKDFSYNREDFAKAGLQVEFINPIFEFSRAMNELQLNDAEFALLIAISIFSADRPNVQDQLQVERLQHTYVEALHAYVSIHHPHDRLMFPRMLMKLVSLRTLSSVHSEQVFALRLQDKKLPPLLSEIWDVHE
Procedure, shortened: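 Competition binding of test ligands against 5 nM ³H tracer solution (pre-mix concentration) on biotinylated hLXRα from E. coli extract, captured on streptavidin flash plates (Bmax ~4000 cpm). Ligand dilution series made in DMSO. Incubated overnight at +4 °C; bound radioactivity counted after washing.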

SMILES	Binding ratio a/b (human LXRβ)	IC50 (human LXRβ) [nM]	IC50 (human LXRα) [nM]
Cc1cc(CC(=O)O)cc(NCc2cccc(-c3c(C)cnc4c(C(F)(F)F)cccc34)c2)c1C [Example 88, [3,4-dimethyl-5-({3-[3-methyl-8-(trifluoromethyl)quinolin-4-yl]benzyl}amino)phenyl]acetic acid]	2	12700	31600
O=C(O)c1c(F)cccc1OCc1cccc(-c2c(Cc3ccccc3)cnc3c(C(F)(F)F)cccc23)c1 [Example 89, 2-({3-[3-benzyl-8-(trifluoromethyl)quinolin-4-yl]benzyl}oxy)-6-fluorobenzoic acid]	2	1600	3980
O=C(O)c1ccc(F)c(OCc2cccc(-c3c(Cc4ccccc4)cnc4c(C(F)(F)F)cccc34)c2)c1 [Example 92, 3-({3-[3-benzyl-8-(trifluoromethyl)quinolin-4-yl]benzyl}oxy)-4-fluorobenzoic acid]	2	570	1280
Cc1cccc(NCc2cccc(-c3c(Cc4ccccc4)cnc4c(C(F)(F)F)cccc34)c2)c1C(=O)O [Example 93, 2-({3-[3-benzyl-8-(trifluoromethyl)quinolin-4-yl]benzyl}amino)-6-methylbenzoic acid]	2	906	2000
Cc1ccc(C(=O)O)cc1NCc1cccc(-c2c(Cc3ccccc3)cnc3c(C(F)(F)F)cccc23)c1 [Example 94, 3-({3-[3-benzyl-8-(trifluoromethyl)quinolin-4-yl]benzyl}amino)-4-methylbenzoic acid]	2	1370	3010
O=C(O)c1ccc2ccccc2c1OCc1cccc(-c2c(Cc3ccccc3)cnc3c(C(F)(F)F)cccc23)c1 [Example 95, 1-({3-[3-benzyl-8-(trifluoromethyl)quinolin-4-yl]benzyl}oxy)-2-naphthoic acid]	2	1030	2220
COc1ccc(C(=O)O)cc1OCc1cccc(-c2c(Cc3ccccc3)cnc3c(C(F)(F)F)cccc23)c1 [Example 98, 3-({3-[3-benzyl-8-(trifluoromethyl)quinolin-4-yl]benzyl}oxy)-4-methoxybenzoic acid]	2	2500	5200
O=C(O)c1c[nH]c2ccc(NCc3cccc(-c4c(Cc5ccccc5)cnc5c(C(F)(F)F)cccc45)c3)cc12 [Example 99, 5-({3-[3-benzyl-8-(trifluoromethyl)quinolin-4-yl]benzyl}amino)-1H-indole-3-carboxylic acid]	2	620	1240
Cc1ccc(OCc2cccc(-c3c(Cc4ccccc4)cnc4c(C(F)(F)F)cccc34)c2)c(C(=O)O)c1 [Example 102, 2-({3-[3-benzyl-8-(trifluoromethyl)quinolin-4-yl]benzyl}oxy)-5-methylbenzoic acid]	2	2820	4760
Cc1c(NCc2cccc(-c3c(Cc4ccccc4)cnc4c(C(F)(F)F)cccc34)c2)ccc(C(=O)O)c1C [Example 103, 4-({3-[3-benzyl-8-(trifluoromethyl)quinolin-4-yl]benzyl}amino)-2,3-dimethylbenzoic acid]	2	3300	5040
O=C(O)c1cc(F)ccc1OCc1cccc(-c2c(Cc3ccccc3)cnc3c(C(F)(F)F)cccc23)c1 [Example 104, 2-({3-[3-benzyl-8-(trifluoromethyl)quinolin-4-yl]benzyl}oxy)-5-fluorobenzoic acid]	1	2150	3200
Cc1cnc2c(C(F)(F)F)cccc2c1-c1cccc(CNc2cc(F)ccc2C(=O)O)c1 [Example 106, 4-fluoro-2-({3-[3-methyl-8-(trifluoromethyl)quinolin-4-yl]benzyl}amino)benzoic acid]	1	5290	7280
O=C(O)Cc1cccc2ccc(OCc3cccc(-c4ccnc5c(C(F)(F)F)cccc45)c3)cc12 [Example 107, [7-({3-[8-(trifluoromethyl)quinolin-4-yl]benzyl}oxy)-1-naphthyl]acetic acid]	1	5540	7380
Cc1c(C(=O)O)cc(Br)c(NCc2cccc(-c3c(Cc4ccccc4)cnc4c(C(F)(F)F)cccc34)c2)c1C [Example 108, 4-({3-[3-benzyl-8-(trifluoromethyl)quinolin-4-yl]benzyl}amino)-5-bromo-2,3-dimethylbenzoic acid]	1	2730	3620

The next compounds have a lower IC50 (human LXRβ) than those just listed; values first:

Binding ratio a/b (human LXRβ)	IC50 (human LXRβ) [nM]	IC50 (human LXRα) [nM]	SMILES
2	546	1160	CC(C)C[C@H](NC(=O)c1cccc(COc2cccc(-c3c(Cc4ccccc4)cnc4c(C(F)(F)F)cccc34)c2)c1)C(=O)O [Example 96, N-[3-({3-[3-benzyl-8-(trifluoromethyl)quinolin-4-yl]phenoxy}methyl)benzoyl]leucine]
2	477	1080	O=C(O)c1ccc(Cl)cc1NCc1cccc(-c2c(Cc3ccccc3)cnc3c(C(F)(F)F)cccc23)c1 [Example 91, 2-({3-[3-benzyl-8-(trifluoromethyl)quinolin-4-yl]benzyl}amino)-4-chlorobenzoic acid]
3	374	997	O=C(O)Cc1cccc2ccc(OCc3cccc(-c4c(Cc5ccccc5)cnc5c(C(F)(F)F)cccc45)c3)cc12 [Example 86, [7-({3-[3-benzyl-8-(trifluoromethyl)quinolin-4-yl]benzyl}oxy)-1-naphthyl]acetic acid]
3	359	966	O=C(O)c1ccc(OCc2cccc(-c3c(Cc4ccccc4)cnc4c(C(F)(F)F)cccc34)c2)c(Cl)c1 [Example 85, 4-({3-[3-benzyl-8-(trifluoromethyl)quinolin-4-yl]benzyl}oxy)-3-chlorobenzoic acid]
2	358	872	O=C(O)c1cccc(COc2cccc(-c3c(Cc4ccccc4)cnc4c(C(F)(F)F)cccc34)c2)c1 [Example 90, 3-({3-[3-benzyl-8-(trifluoromethyl)quinolin-4-yl]phenoxy}methyl)benzoic acid]
3	319	864	O=C(O)c1ccc(OCc2cccc(-c3c(Cc4ccccc4)cnc4c(C(F)(F)F)cccc34)c2)c(F)c1 [Example 84, 4-({3-[3-benzyl-8-(trifluoromethyl)quinolin-4-yl]benzyl}oxy)-3-fluorobenzoic acid]
2	237	493	O=C(O)c1ccccc1NCc1cccc(-c2c(Cc3ccccc3)cnc3c(C(F)(F)F)cccc23)c1 [Example 97, 2-({3-[3-benzyl-8-(trifluoromethyl)quinolin-4-yl]benzyl}amino)benzoic acid]
2	183	354	O=C(O)c1ccc(NCc2cccc(-c3c(Cc4ccccc4)cnc4c(C(F)(F)F)cccc34)c2)cc1 [Example 101, 4-({3-[3-benzyl-8-(trifluoromethyl)quinolin-4-yl]benzyl}amino)benzoic acid]
1	129	185	Cn1c(C(=O)O)cc2cccc(NCc3cccc(-c4c(Cc5ccccc5)cnc5c(C(F)(F)F)cccc45)c3)c21 [Example 105, 7-({3-[3-benzyl-8-(trifluoromethyl)quinolin-4-yl]benzyl}amino)-1-methyl-1H-indole-2-carboxylic acid]
2	53	103	O=C(O)c1ccc(COc2cccc(-c3c(Cc4ccccc4)cnc4c(C(F)(F)F)cccc34)c2)cc1 [Example 100, 4-({3-[3-benzyl-8-(trifluoromethyl)quinolin-4-yl]phenoxy}methyl)benzoic acid]
3	28	72	O=C(O)c1ccc(NCc2cccc(-c3c(Cc4ccccc4)cnc4c(C(F)(F)F)cccc34)c2)cc1Cl [Example 87, 4-({3-[3-benzyl-8-(trifluoromethyl)quinolin-4-yl]benzyl}amino)-2-chlorobenzoic acid]
